Consider 69 molecules from the supplement of paper PMC5580409.

For this assay, the system named is Plasmodium falciparum 3D7. Kind of assay: pEC50, asexual blood-stage growth inhibition. The following applies: 72 h. As to the method: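 Held-out test set measured in the Guy lab in 2014 with the same procedure as the primary St. Jude screen. P. falciparum 3D7 blood-stage culture (2% hematocrit, 1% parasitemia) was treated with compound for 72 h at 37 °C, and growth was read by SYBR Green I fluorescence. EC50 came from a four-parameter Hill fit over a 10-point dilution series […].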

Where only a bound is given, the exact number is not on record here.

The term pEC50 denotes the EC50 on a negative log10 scale, so that one unit is a factor of ten. Low values mean a large EC50, high ones a small EC50. In turn, `Cc1cccc2c(C(=O)N3CCN(Cc4ccccc4)CC3)cc(-c3cccnc3)nc12` gave a pEC50 of 5.25.

In turn, `OC(CNCC1CCCO1)Cn1c2ccc(Br)cc2c2cc(Br)ccc21` (centres undefined) gave a pEC50 of 5.76.

`Cc1ccc(OCC(O)Cn2c(=N)n(CCN3CCOCC3)c3ccccc32)cc1` (centres undefined) came in with a pEC50 below 4.82.

`CCN(CC)CC(O)COc1ccc(CNC2CCCCC2)cc1OC` (centres undefined) returned a pEC50 below 4.82.

For `CC1CCN(CC(O)Cn2c3ccc(Cl)cc3c3cc(Cl)ccc32)CC1` (centres undefined), the pEC50 was below 4.82.

Molecule `Cc1cccc(CN2CCCn3c4c(c5cc(C)ccc53)CCCC42)c1` (centres undefined) showed a pEC50 of 5.33.

The molecule `C=CCN1C(=O)N(c2ccc(Cl)cc2)C(=O)C1CC(=O)Nc1ccc(F)cc1` (centres undefined) came in with a pEC50 below 4.82.

Regarding `CN(C)c1ccc(NC(=O)C2CC2c2ccccc2)cc1` (centres undefined), the pEC50 is below 4.82.

As to `CCN(CC)CCn1c(=N)n(CC(O)COc2ccccc2)c2ccccc21` (centres undefined), the pEC50 is below 4.82.

For `Cc1ccc(OCCN(C)C(=O)c2cn(C3CCCCC3)cc(C(=O)NC(C)(C)C)c2=O)cc1`, the pEC50 came to 5.03.

Consider `CCCCn1nnnc1NCc1ccc(OC)c(OC)c1OC`, for which the pEC50 came out at 6.32.

`CCOC(=O)c1c(C)oc2cc(CN(C)C)c(O)cc12`: the pEC50 stood at 5.29.

In turn, `COCCNCC(O)Cn1c2ccc(Cl)cc2c2cc(Cl)ccc21` (centres undefined) displayed a pEC50 of 5.63.

As for `Cc1ccccc1OCC(O)CNC1CCCCC1` (centres undefined), the pEC50 was below 4.82.

Turning to `CC1CCC(C(C)C)C(OCC(O)CNC2CCCC2)C1` (centres undefined), the pEC50 was found to be 5.46.

`CCN1CCN(Cc2c(O)ccc3c(=O)c(Oc4ccccc4Br)c(C(F)(F)F)oc23)CC1`: the pEC50 stood at 5.46.

`OC(CN1CCCCCC1)Cn1c2ccccc2c2ccccc21` (centres undefined) displayed a pEC50 below 4.82.

In the case of `OC(CNCCc1ccccc1)Cn1c2ccc(Br)cc2c2cc(Br)ccc21` (centres undefined), the pEC50 was 5.81.

Take `Cc1ccc(C2CC(C(F)(F)F)n3nc(C(=O)N(Cc4ccccc4)Cc4ccccc4)cc3N2)cc1` (centres undefined): the pEC50 is below 4.82.

`CC(C)c1ccc(NC(=O)/C=C/c2ccccc2)cc1` showed a pEC50 of 5.16.

`CCCCn1c(=N)n(CC(O)COc2ccc(Cl)cc2)c2ccccc21` (centres undefined) returned a pEC50 below 4.82.

`O=S(=O)(c1cccc(C(F)(F)F)c1)N1CCC(CO)(Cc2cccc(C(F)(F)F)c2)CC1` showed a pEC50 of 5.68.

Molecule `COc1ccc(C2CC(=O)NC3=C2C(=O)CC(c2ccccc2)C3)cc1OC` (centres undefined) had a negative-log EC50 (pEC50) of 5.34.

As to `CN(C)c1ccc(NC(=O)/C=C/c2ccccc2Cl)cc1`, the pEC50 was 4.99.

Consider `CCc1cccc(NC(=O)/C=C/c2ccccc2Cl)c1`, for which the pEC50 amounted to 5.36.

In the case of `O=c1c(Oc2ccccc2Cl)c(C(F)(F)F)oc2c(CN3CCCCC3)c(O)ccc12`, the pEC50 is below 4.82.

`OC(CNC1CCCC1)COc1ccccc1-c1ccccc1` (centres undefined): the pEC50 was below 4.82.

For `Cc1ccc(C(=O)Cn2c(=N)n(CCN3CCCCC3)c3ccccc32)cc1`, the pEC50 was below 4.82.

The molecule `CC(C)c1ccc(/C=C/C(=O)Nc2ccc(C(C)C)cc2)cc1` had a pEC50 below 4.82.

With `CCCCN(CCCC)CC(O)COc1ccccc1[N+](=O)[O-]` (centres undefined), the pEC50 came out at 7.13.

`COc1ccc(CN2CCCn3c4c(c5cc(C)ccc53)CCCC42)cc1O` (centres undefined): the pEC50 is below 4.82.

Consider `Cc1ccc(OCC(O)CNC2CCCC2)c(C)c1` (centres undefined), for which the pEC50 is 5.19.

Turning to `Cc1cccc(Oc2c(C(F)(F)F)oc3c(CN4CCC(C)CC4)c(O)ccc3c2=O)c1`, the pEC50 was below 4.82.

Consider `N=c1n(CCN2CCOCC2)c2ccccc2n1CC(O)COc1ccc(Cl)cc1` (centres undefined), for which the pEC50 is below 4.82.

In turn, `CCOC(=O)c1cnc2c(OC)cccc2c1Nc1cccc(C(C)=O)c1` registered a pEC50 of 5.55.

Consider `O=C(Nc1ccc(-c2nc3ccccc3[nH]2)cc1)c1cncc(Br)c1`, for which the pEC50 worked out at 5.35.

With `OC(CNCCOc1ccccc1)Cn1c2ccccc2c2ccccc21` (centres undefined), the pEC50 was below 4.82.

The molecule `C=CCn1nnnc1NCc1cc(Cl)c(OC)c(OC)c1` had a pEC50 below 4.82.

On to `N=c1n(CCN2CCOCC2)c2ccccc2n1CC(O)COc1ccccc1` (centres undefined), for which the pEC50 was below 4.82.

For `OC(CN1CCN(Cc2ccccc2)CC1)Cn1c2ccc(Cl)cc2c2cc(Cl)ccc21` (centres undefined), the pEC50 was below 4.82.

For the molecule `COc1ccc(CCNC(=O)c2cn(C3CCCCC3)cc(C(=O)NC(C)(C)C)c2=O)cc1`, the negative-log EC50 (pEC50) was 6.95.

`CC(Nc1cc(N2CCN(C(=O)c3ccccc3)CC2)ccc1[N+](=O)[O-])c1ccccc1` (centres undefined) returned a pEC50 of 6.18.

In turn, `CCN1/C(=C/c2sc3ccc(O)cc3[n+]2CC)C=Cc2cc(C)ccc21` registered a pEC50 of 6.3.

The molecule `COc1ccccc1-c1c(C(F)(F)F)oc2c(CN3CCC(C)CC3)c(O)ccc2c1=O` registered a negative-log EC50 (pEC50) below 4.82.

The molecule `Cc1cccc(NCC(O)Cn2c3ccc(Cl)cc3c3cc(Cl)ccc32)c1` (centres undefined) returned a negative logarithm of the EC50 (pEC50) of 5.35.

`CCOC(=O)C1=C(C)NC2=C(C(=O)CC(c3ccco3)C2)C1c1ccc(OC)c(OC)c1` (centres undefined) displayed a pEC50 below 4.82.

As to `Cc1cc(Nc2ccccc2C(F)(F)F)nc(-n2nc(C)cc2C)n1`, the pEC50 is below 4.82.

In the case of `Cc1cccc(Oc2c(C(F)(F)F)oc3c(CN4CCN(C)CC4)c(O)ccc3c2=O)c1`, the pEC50 worked out at 5.27.

Take `COC(=O)C1=C(C)NC2=C(C(=O)CC(c3ccc(Cl)cc3)C2)C1c1cccc(O)c1` (centres undefined): the pEC50 is below 4.82.

For the molecule `Cc1ccc(NCC(O)Cn2c3ccccc3c3ccccc32)cc1` (centres undefined), the pEC50 is below 4.82.

As for `Fc1ccccc1N1CCN(CC2CC3C=CC2C3)CC1` (centres undefined), the negative-log EC50 (pEC50) is below 4.82.

The molecule `CC(C)(C)NC(=O)c1cn(C2CCCCC2)cc(C(=O)NC2CCN(Cc3ccccc3)CC2)c1=O` came in with a negative-log EC50 (pEC50) below 4.82.

The molecule `O=C(NC1CCN(Cc2ccccc2)CC1)c1cc(-c2ccncc2)nc2ccc(Cl)cc12` returned a pEC50 of 5.54.

Regarding `O=C(NC1CCCCC1)c1cn(C2CC2)cc(C(=O)NC2CCN(Cc3ccccc3)CC2)c1=O`, the pEC50 is below 4.82.

In turn, `COc1ccc(C)cc1S(=O)(=O)N1CCC(CO)(Cc2cccc(C(F)(F)F)c2)CC1` yielded a pEC50 below 4.82.

`CCN(CC)CCN1C(=O)c2ccccc2NC1c1ccc(Cl)cc1Cl` (centres undefined) displayed a pEC50 below 4.82.

`CCOC(=O)c1cnc2ccccc2c1Nc1ccc2c(c1)OCCO2`: the pEC50 is below 4.82.

As to `OCCC1CN(Cc2cc(Cl)ccc2O)CCN1Cc1ccccc1` (centres undefined), the pEC50 was below 4.82.

In the case of `CCC(C(=O)Nc1cccc(-c2nc3ccccc3[nH]2)c1)c1ccccc1` (centres undefined), the pEC50 is below 4.82.

On to `CC(C)CCn1cc(C(=O)NC(C)(C)C)c(=O)c(C(=O)N2CCN(C/C=C/c3ccccc3)CC2)c1`, for which the negative logarithm of the EC50 (pEC50) was below 4.82.

Consider `CCC(C(=O)Nc1ccc(-c2nc3ccccc3[nH]2)cc1)c1ccccc1` (centres undefined), for which the pEC50 is below 4.82.

On to `OC(CNCc1ccccc1)Cn1c2ccc(Cl)cc2c2cc(Cl)ccc21` (centres undefined), for which the pEC50 is 5.73.

`OC(CNCc1ccc(OCc2ccccc2)cc1)c1ccccc1` (centres undefined): the pEC50 was 5.38.

`CC1=C(C(=O)OCCOc2ccccc2)C(c2ccc(F)cc2)C2=C(CC(c3ccccc3)CC2=O)N1` (centres undefined) came in with a pEC50 below 4.82.

In the case of `O=S(=O)(c1ccccc1)N1CCC(CO)(Cc2ccccc2C(F)(F)F)CC1`, the pEC50 was below 4.82.

`CN(C)Cc1c(O)ccc2c(=O)c(Oc3ccc(C(C)(C)C)cc3)c(C(F)(F)F)oc12` yielded a pEC50 of 5.24.

`O=C(CC1C(=O)N(c2cccc(F)c2)C(=O)N1CCc1ccccc1F)Nc1cccc(F)c1` (centres undefined) came in with a pEC50 below 4.82.

Regarding `COc1ccc(CC2(CO)CCN(S(=O)(=O)c3cccc(C(F)(F)F)c3)CC2)cc1`, the pEC50 is below 4.82.

With `Cc1ccc(C)c(Oc2c(C(F)(F)F)oc3c(CN4CCN(C)CC4)c(O)ccc3c2=O)c1`, the pEC50 is below 4.82.
